Assay results as given in patent US4093715A, “5-Iodo-5'-amino-2',5'-dideoxycytidine and the pharmaceutically acceptable salts thereof” (priority 1977, dated 1978).

Legend:
Vero cells = experiment: Cytotoxicity; assay type: cell-based
Source text: (§1) Standard procedures were used to maintain the virus and the Vero cells. This included growth and titration by plaque assay as well as the replications of the virus in the presence of the test compounds. Cells were maintained and infected in Dulbecco's medium with 10% fetal calf serum.

[1] = test system: herpes simplex virus strain HSV-1 (prototype); experiment: Inhibition of herpes simplex virus replication (titre reduction by plaque assay) in infected Vero cells; assay type: cell-based, herpes simplex virus type 1
Method: The compounds of this invention manifest a high order to inhibition with various herpes simplex viruses. For example, when tested against strain HSV-1 (prototype) at a concentration of 400 μM the average log reduction in titre was 1.4.
as §1
For testing, the cells were infected with virus at a ratio of approximately 10 plaque forming units per cell. The viral inoculum was drained after one hour adsorption at 37° C. An appropriate volume of medium containing the compound for testing was added. After 36-48 hours at 37° C, the infected cells were frozen until ready for titration.

[2] = test system: experimental herpes simplex keratitis; experiment: Treatment of experimental herpes simplex keratitis in rabbits; assay type: in vivo; settings: topical drops 4 mg/ml at 4 hour intervals for 72 hours starting 24 hours after infection, graded daily for 11 days
Method: One advantage of AIC has been established by the treatment of rabbits. In this study, experimental herpes simplex keratitis was established bilaterally in 16 rabbits. These were divided into 2 matched groups of 8. Each group was treated in a double blind fashion with topical drops at 4 hour intervals for 72 hours starting 24 hours after infection. The solutions administered were:
2. AIC, 4 mg/ml Each eye was examined daily for 11 days and graded by two ophthalmologists.

mice = experiment: Acute toxicity in mice; assay type: in vivo; settings: for lethality, acute toxicity: mice
Method: Acute toxicity of AIC in mice indicates no lethality at 200 mg/kg of body weight. However, at a level as high as 400 mg/kg the compound is lethal to mice.

[3] = cited from earlier work
pregnant rabbits = settings: topically to the eye, doses similar to those used clinically in humans; cited from earlier work
newborn rats = settings: systemic administration; cited from earlier work

NC[C@H]1O[C@@H](n2cc(I)c(N)nc2=O)C[C@@H]1O [AIC, 5-Iodo-5'-amino-2',5'-dideoxycytidine]
cytotoxicity (Vero cells; at treatment levels as high as 1600 μM): No cytotoxicity is evident
log reduction at 400 µM ([1]; Human alphaherpesvirus 1, HSV-1 (prototype), 400 μM, infected Vero cells, ~10 pfu per cell, 36-48 hours at 37° C): 1.4
therapeutic effectiveness in herpes simplex keratitis [2]: effective therapeutically
lethality, acute toxicity (mice; 200 mg/kg of body weight): no lethality
lethality, acute toxicity (mice; 400 mg/kg): lethal
therapeutic index (in words) (mice; from acute toxicity in mice coupled with activity): good therapeutic index

O=c1[nH]c(=O)n([C@H]2C[C@H](O)[C@@H](CO)O2)cc1I [idoxuridine, 5-iodo-deoxy-uridine]
undesirable side effects ([3]; ocular use in herpes simplex keratitis): follicular and papillary conjunctivitis, and epithelial punctate keratopathy
cellular toxicity ([3]; therapy of herpes simplex keratitis): significant cellular toxicity
teratogenicity (pregnant rabbits): teratogenicity
cytotoxicity (Vero cells; at a concentration of 50 μM): almost totally cytotoxic
antiviral activity (in words) ([1]; at relatively low levels): high order of activity
teratogenicity (newborn rats): teratogenicity
